Structures can show the parent of a compound that is named as a salt. Where two headings read alike, the source gives them in different places.
Assays:
[1] = Pharmacokinetic experiment in rats, LC/MS/MS; type: in vivo; settings: SD rats; for AUC: read-out: Area under the curve (AUC, ng/mL.h)
Procedure: Taking SD rats as an example, the drug concentrations in the plasma of rats at different times after i.g. and i.v. administration of compounds of Examples 1, 5, 6, 8, 12, 13, 15, 18, 19, 22, 25, 27 and 29, respectively, were determined by the liquid chromatography-tandem mass spectrometry (LS/MS/MS) method, and the relevant pharmacokinetic parameters were calculated to evaluate the pharmacokinetic properties of example compounds of the present invention in rats.
Healthy adult SD rats, SPF grade, male, purchased from Sippe-Bk Lab Animal Co., Ltd., Shanghai, license number SCXK (Shanghai) 2018-0006, animal certificate number: 20180006006321.
A certain amount of compound was weighed, dissolved in 5% dimethyl sulfoxide (DMSO), subjected to vortex and sonication, added with 0.5% sodium carboxymethyl cellulose (CMC-Na), and sonicated, to prepare a homogeneous solution.
Before administration and 5 min, 15 min, 0.5 h, 1 h, 2 h, 4 h, 6 h, 8 h and 24 h after administration, orbital blood was collected, 0.2 milliliters (mL) of blood being collected each time, and placed in an anticoagulant tube, mixed well, and stored in a −20° C. refrigerator for later use.
The content of the compound in rat whole blood was determined by liquid chromatography-tandem mass spectrometry (LS/MS/MS).
The pharmacokinetic parameters of the compounds after administration were calculated using the non-compartmental model of WinNonLin5.3 software.

[2] = system: mouse colon cancer MC38-hPD-L1; experiment: In vivo efficacy in mice, MC38-hPD-L1 subcutaneous tumor model; settings: 50 mg/kg i.g., twice a day, MC38-hPD-L1 in C57BL/6 mice
Description: Under sterile conditions, mouse colon cancer MC38-hPD-L1 in logarithmic growth phase was digested into single cells and then transplanted into the right back of C57BL/6 mice subcutaneously. Each mouse was inoculated with 1×10^6 cells in a volume of […] (μL). After inoculation, when the tumor grows to 100 cubic millimeters (mm^3), the mice were randomly divided into 9 groups, with 8 mice in each group, for drug efficacy experiments. The positive control was human programmed death receptor ligand (PD-L1) antibody. The negative control group was given the same amount of vehicle.
C57BL/6 mice, SPF grade, 6-8 weeks old, female, purchased from Beijing Vital River Laboratory Animal Technology Co., Ltd., license number SCXK […] 2017-0011, animal certificate number: 20170011003865.
An appropriate amount of compound was weighted, dissolved in 5% dimethyl sulfoxide (DMSO), subjected to vortex and sonication, added with 0.5% sodium carboxymethyl cellulose (CMC-Na), and sonicated, to prepare a solution of 5 mg per milliliter (mg/mL).

ICR mice = experiment: Acute toxicity test in mice, single dose, 14 days observation; type: in vivo; settings: within 14 days from administration
Procedure: (§1) This experiment aims to test the toxic effects of the compounds in mice.
(§2) ICR mice, SPF grade, 6-8 weeks old, half male and half […], purchased from Sippe-Bk Lab Animal Co., Ltd., Shanghai, license number SCXK (Shanghai) 2018-0006, animal certificate number: 20180006010983.
(§3) ICR mice were administered different doses of compounds at a single time, and were continuously observed for 14 days. The animal death, poisoning reaction, body weight change, diet, appearance, behavior, etc. were recorded. At the end point, the animals were dissected, and the organs were taken for histopathological examination.

[3] = as above; type: in vivo; settings: both sexes, mouse, in vivo; ICR mice, single administration; read-out: median lethal dose (LD50)
Procedure: as §1, §2, §3

SMILES	Tumor growth inhibition rate [2] [%]	body weight and behavior compared with control group (ICR mice)	LD50 at 14 days [3] [mg/kg]	further results
CCN1CCc2c(nc(C(=O)Nc3cncc(-c4cccc(NC(=O)c5nc6c(n5C)CCN(CC)C6)c4Cl)c3C)n2C)C1 [Example 27, N-(2-chloro-3-(5-(5-ethyl-1-methyl-4,5,6,7-tetrahydro-1H-imidazo[4,5-c]pyridine-2-carboxamido)-4-methylpyridin-3-yl)phenyl)-5-ethyl-1-methyl-4,5,6,7-tetrahydro-1H-imidazo[4,5-c]pyridine-2-carboxamide]	80			AUC ([1]; male, rat, whole blood, iv, i.v., 2 mg/kg): 637 ng·h/mL; half-life ([1]; male, rat, whole blood, iv, i.v., 2 mg/kg, read-out: Half life (T1/2, h) (converted)): 2.26 h; bioavailability ([1]; male, rat, whole blood, po, p.o. 10 mg/kg vs i.v. 2 mg/kg, read-out: Bioavailability (F%)): 46%; AUC ([1]; male, rat, whole blood, po, p.o. (i.g.), 10 mg/kg): 1460 ng·h/mL; Cmax ([1]; male, rat, whole blood, po, p.o. (i.g.), 10 mg/kg, read-out: Blood concentration (Cmax, ng/mL)): 423 ng/mL
Cc1c(NC(=O)c2nc3c(n2C)CCN(C[C@H](C)O)C3)cncc1-c1cccc(-c2nc3cc(CN4CC[C@@H](C(=O)O)C4)cc(Cl)c3o2)c1C [Example 30, (R)-1-(((7-chloro-2-(3-(5-(5-((S)-2-hydroxypropyl))-1-methyl-4,5,6,7-tetrahydro-1H-imidazo[4,5-c]pyridine-2-carboxamido)-4-methylpyridin-3-yl)-2-methylphenyl)benzo[d]oxazole-5-yl)methyl)pyrrolidine-3-carboxylic acid]	79	no abnormal body weight or behavior	> 1000	
Cc1c(Nc2nccc3cc(CN4CC[C@@H](O)C4)cnc23)cccc1-c1cncc(-c2nc3cc(CN4CC[C@@H](C(=O)O)C4)cc(Cl)c3o2)c1C [Example 11, (R)-1-(((7-chloro-2-(5-(3-((3-((((R)-3-hydroxypyrrolidin-1-yl)methyl)-1,7-naphthyridin-8-yl)amino)-2-methylphenyl)-4-methylpyridin-3-yl)benzo[d]oxazol-5-yl)methyl)pyrrolidine-3-carboxylic acid trifluoroacetate]	85	no abnormal body weight or behavior	> 1000	
Cc1c(NC(=O)c2nc3c(n2C)CCN(C[C@H](C)O)C3)cncc1-c1cccc(NC(=O)c2nc3c(n2C)CCN(C2COC2)C3)c1Cl [Example 23, (S)—N-(5-(2-chloro-3-(1-methyl-5-(oxetan-3-yl)-4,5,6,7-tetrahydro-1H-imidazo[4,5-c]pyridine-2-carboxamido)phenyl)-4-methylpyridin-3-yl)-5-(2-hydroxypropyl)-1-methyl-4,5,6,7-tetrahydro-1H-imidazo[4,5-c]pyridine-2-carboxamide]	81			
Cc1c(NC(=O)c2nc3c(s2)CN(C)CC3)cccc1-c1cccc(-c2nc3cc(CN4CC[C@@H](C(=O)O)C4)cnc3o2)c1C [Example 4, (R)-1-(((2-(2,2′-dimethyl-3′-(5-methyl-4,5,6,7-tetrahydrothiazolo[5,4-c]pyridine-2-carboxamido))-[1,1′-biphenyl]-3-yl)oxazolo[5,4-b]pyridin-6-yl)methyl)pyrrolidine-3-carboxylic acid]	82	no abnormal body weight or behavior	> 1000	
Cc1c(NC(=O)c2nc3c(s2)CN(C)CC3)cccc1-c1cncc(-c2nc3cc(CN4CC[C@@H](C(=O)O)C4)cc(Cl)c3o2)c1C [Example 9]	78	no abnormal body weight or behavior	> 1000	
Cc1c(NC(=O)c2nc3c(n2C)CCN(CC(C)O)C3)cccc1-c1nccc(NC(=O)c2nc3c(n2C)CCN(C)C3)c1Cl (stereo not shown) [Example 15]	86			Area under the curve (AUC, ng/mL.h) ([1]; i.v., 2 mg/kg): 599.36 ng·h/mL; Half life (T1/2, h) ([1]; i.v., 2 mg/kg): 1.76 h; Bioavailability (F%) ([1]; p.o. 10 mg/kg vs i.v. 2 mg/kg): 58%; Area under the curve (AUC, ng/mL.h) ([1]; p.o. (i.g.), 10 mg/kg): 1618.28 ng·h/mL; Blood concentration (Cmax, ng/mL) ([1]; p.o. (i.g.), 10 mg/kg): 377.6 ng/mL
